Literature values as cited in US9193713B2, “Compounds as cannabinoid receptor ligands” (priority 2007, dated 2015).

Columns and labels:
mice = conditions: model for post-menopausal osteoporosis
rat = rat formalin model of persistent pain
[1] = test system: apolipoprotein E knockout mice; conditions: low doses; effects inhibited by SR144528
rodent = conditions: neuropathic, incisional, chronic and acute inflammatory pain
animal models = conditions: acute thermal, persistent, inflammatory and neuropathic pain models
microglial = conditions: in vitro; effects blocked by SR144528

## SR144528
osteoclast
  effect on osteoclast activity: inhibit osteoclast activity
mice
  effect on ovariectomy-induced bone loss: reverse ovariectomy-induced bone loss

## CCCCCCC(C)(C)c1cc(OC)c([C@@H]2C=C(CO)[C@@H]3C[C@H]2C3(C)C)c(OC)c1 [HU-308]
rat
  antinociceptive response: elicits an antinociceptive response

## (−)-Δ^9-Tetrahydrocannabinol [THC]
[1]
  effect on progression of atherosclerotic lesions: slowed the progression of atherosclerotic lesions

## COc1ccc2c(c1)c(CCN1CCOCC1)c(C)n2C(=O)c1cccc(Cl)c1Cl [GW405833]
rodent
  efficacy in pain models: efficacious

## CN1CCCCC1Cn1cc(C(=O)c2cc([N+](=O)[O-])ccc2I)c2ccccc21 (stereo not shown) [AM-1241]
Animal models
  analgesic efficacy: robust analgesic efficacy

## CCCC(C)(C)c1ccc2c(c1)OC(C)(C)[C@@H]1CC=C(C)C[C@@H]21 [JWH-133]
microglial
  effect on β-amyloid-induced microglial activation and neurotoxicity: abrogated β-amyloid-induced microglial activation and neurotoxicity
